From patent US9744186B2 (priority 2012, dated 2017)

Columns and labels:
[1] = TC50 MTS assay: PK9 cells; assay type: cell-based; settings: human, 48 h drug treatment
Procedure: (§1) Plating Cells: The Huh7, HEPG2, HEK293, MCF-7, PK9, RPK9, or BxPC3 cells were passaged when they were about 70% confluent. The cells were counted using a hemocytometer, and then diluted cells to 0.5×10^5 cells per mL in DMEM+10% FBS. 100 µL of the cells (5,000 cells) were plated per well in a clear 96-well plate. The cells were allowed to attach for 24 hours at 37° C.
(§2) Treating the cells: Pre-warm the DMEM media without phenol red+2% FBS media to 37° C. […] This will bring the final DMSO concentration to 0.5%. Use these 0.5 mM dilutions to further serially the drugs in DMEM without phenol red+2% FBS+0.5% DMSO. This will keep the concentration of DMSO in each condition identical. Remove the 96-well plate from the 37° C. incubator. Replace the media on the plate with the dilutions of the drugs. Stagger these treatments by 1 h and write the treatment time on each set of plates. Return to 37° C. for 48 h or 96 h as indicated.
(§3) MTS Assay: The reagents from CellTiter 96 kit (Promega Corporation, Madison, Wis.) were thawed at room temperature in the dark for 1 h. The 96-well plate was removed from the 37° C. incubator at 48 h after drug treatment. […] The absorbance of each well at 490 nm and 650 nm was determined using the Flexstation 3 microplate reader in endpoint mode every hour for 3 h. The solutions in the wells were mixed prior to each reading. […]

hENT1 = assay: TC50 MTS assay with human cancer cell lines: Huh7; assay type: cell-based; settings: human, Huh7 cells; 48 h drug treatment; 10 μM S-(4-nitrobenzyl)-6-thioinosine (hENT1 inhibitor) added; read-out: TC50 (μM) in Huh7 cells NBTI
Procedure: as §1, §2
(§4) MTS Assay: The reagents from CellTiter 96 kit (Promega Corporation, Madison, Wis.) were thawed at room temperature in the dark for 1 h. The 96-well plate was removed from the 37° C. incubator at 48 h after drug treatment. 20 μL of the combined MTS/PMS reagent to each well of the plate, mixed, and the plate returned to 37° C. The absorbance of each well at 490 nm and 650 nm was determined using the Flexstation 3 microplate reader in endpoint mode every hour for 3 h. The solutions in the wells were mixed prior to each reading. Fit Data to the Emax model: y=(Emax*x)/(TC50+x), where Emax is the maximum inhibition and TC50 is the inhibitory dose 50%. Alternatively, fit the data to the Emax sigmoidal model: y=(Emax*x^slope)/(TC50^slope+x^slope), where slope is the Hill Slope.
(§5) Each TC50 was the average value of three measurements as described herein. […] The RPK9 cells are deficient in deoxycytidine kinase (“dCK”) activity, an enzyme required for the initial phosphorylation of dFdC to dFdCMP (see FIG. 2).

[2] = TC50 MTS assay with human cancer cell lines: Huh7; assay type: cell-based; settings: human, Huh7 cells; 96 h drug treatment
Procedure: as §1, §2, §4, §5

[3] = TC50 MTS assay with human cancer cell lines: HEPG2; assay type: cell-based; settings: HEPG2 cells, 96 h drug treatment
Procedure: as §1, §2, §4, §5

HCV luciferase replicon [4] = assay: Reversal of anti-HCV activity by exogenous nucleosides; assay type: cell-based, hepatitis C virus (HCV); settings: drug 1000, 100 or 25 nM; 50 μM cytidine or 2′-deoxycitidine; 48 h
Procedure: After 48 hours, the cells were lysed, and the total luciferase activity was determined. […] Where indicated, either 50 μM cytidine (C) or 50 μM 2′-deoxycitidine (dC) was also included.
The cells were plated, incubated with drug, and luciferase activity assayed essentially as described herein above. The incubation with drug was for 48 h.

[5] = TC50 MTS assay with human cancer cell lines: BxPC3; assay type: cell-based; settings: BxPC3 cells, 96 h drug treatment
Procedure: as §1, §2, §3

HCV luciferase replicon [6] = assay: Isobologram analysis of synergism with other anti-viral compounds; assay type: cell-based, hepatitis C virus (HCV)
Procedure: Isobologram analysis was carried to assess the potential synergistic interaction of representative disclosed compounds with representative antiviral compounds. The isobolgram analysis was conducted as previously described by Chou and Talalay (see Chou T. C. and Talalay P. “Analysis of combined drug effects: a new look at a very old problem.” Trends Pharmacol Sci 1983; 4:450-4; and Chou T. C. and Talalay P. “Quantitative analysis of dose-effect relationships: the combined effects of multiple drugs or enzyme inhibitors.” Adv Enzyme Regul 1984; 22:27-55). The definitions of synergism are those described by Chou (see Chou, T. C. (2006) Theoretical basis, experimental design, and computerized simulation of synergism and antagonism in drug combination studies. Pharmacol Rev. 58(3):621-81).
Data for the isobologram analysis are shown in FIGS. 12-15, and shown in each figure are the test compound concentrations and corresponding combination index.

[7] = TC50 MTS assay with human cancer cell lines: MCF-7; assay type: cell-based; settings: MCF-7 cells, 96 h drug treatment
Procedure: as §1, §2, §4, §5

[8] = TC50 MTS assay: RPK9 cells (deficient in deoxycytidine kinase); assay type: cell-based; settings: human, 48 h drug treatment, dCK-deficient cells
Procedure: as §1, §2, §3

[9] = TC50 MTS assay with human cancer cell lines: HEK293; assay type: cell-based; settings: HEK293 cells, 96 h drug treatment
Procedure: as §1, §2, §4, §5

HCV luciferase replicon [10] = assay: HCV luciferase replicon IC50 assay in Huh7 cells; settings: Hepatitis C virus
Procedure: Plating Cells: The Luciferase replicon cell line was passaged when it was at about 70% confluency. The cells were counted by using a hemocytometer and diluted to 1×10^5 cells per mL in DMEM+10% FBS+[…] G415. The cells were plated as follows: 100 μL of the cells (10,000 cells) per well in a white-walled 96-well plate. The cells were allowed to attach for 24 hours at 37° C.
(§6) Treating the cells: Media (DMEM+2% FBS) was pre-warmed to 37° C. […] The 96-well plate was removed from the 37° C. incubator, and the media replaced on the plate with the serial dilutions of the test drug. The plate was then returned to 37° C. for 48 h.
Luciferase Assay: The Bright-Glo reagent (Promega Corporation, Madison, Wis.) was removed from the −80° C. freezer and allowed to thaw it at 4° C. in the dark. The amount of reagent necessary for the experiment (3.65 mL) was removed, and the remaining reagent was returned to −80° C. The Glo Lysis Buffer and the Bright Glow reagent were allowed to warm to room temperature for 30 min in the dark. The 96 well plate was removed from the incubator and the cells to allowed cool to room temperature for 30 min. The media was removed from the cells, and each well was gently washed in 100 μL of phosphate buffered saline (PBS). The PBS was removed and then 50 μL of the Glo Lysis Buffer was added to each well, followed by gently rocking the plate for 15 min at room temperature in the dark to ensure complete cell lysis. To each well of the 96-well plate was added 50 μL of the Bright Glo reagent and it was mixed well with the lysate. The plate was inserted into a GloMax 96 plate reader and allowed to sit for 5 min in the dark for the luciferase reaction to reach a steady state. The luminescence on the plate was read by using the pre-installed “Bright Glo” Promega program (Synergy Software) and the data were collected and saved. The data were fit to a 4 parameter logistic curve using Kaleidagraph using the following equation: 100/(1+(x/m3)^m4).
The data in Table 1 were determined for cells exposed to drug for 48 h. The IC50 is the concentration of each compound necessary to inhibit the replication of the HCV luciferase replicon to 50%.
That is, the cells were exposed to drug for 2 h at 37° C., followed by 46 h at 37° C. or incubated in the presence of drug for 48 h at 37° C.

[11] = Compound solubility in media; assay type: physicochemical; settings: DMEM+2% FBS cell culture media, 37 °C, plasma or biological fluid, kinetic from dmso stock; DMEM+2% FBS media
Procedure: as §6

In the case of `Nc1ccn([C@@H]2O[C@H](CO)[C@@H](O)C2(F)F)c(=O)n1` [gemcitabine, 4-amino-1-((2R,4R,5R)-3,3-difluoro-4-hydroxy-5-(hydroxymethyl)tetrahydrofuran-2-yl)pyrimidin-2(1H)-one, reference compound], the CC50 at 48 h [1] is reported as 0.095 ± 0.035 µM, the CC50 at 48 h (hENT1) is reported as > 500 µM and the CC50 at 96 h [2] is reported as 3410 ± 1360 nM. The CC50 at 96 h [3] was 311 ± 55 nM, the “reversal of the inhibition of the HCV luciferase replicon by deoxycytidine and cytidine” value (HCV luciferase replicon [4]) was “reversal” and the CC50 at 96 h [5] was 2.9 ± 0.3 nM. The “Interaction Type with PSI-6130” value (HCV luciferase replicon [6]; Compound 2 = PSI-6130) was “synergism”, the “Interaction Type with PSI-7977” value (HCV luciferase replicon [6]; Compound 2 = PSI-7977) was “slight synergism” and the CC50 at 96 h [7] was 67 ± 14 nM. The CC50 at 48 h [8] was > 500 µM, the CC50 at 96 h [9] was 560 ± 130 nM and the IC50 (HCV luciferase replicon [10]; Huh-7, 48 h, cells incubated with drug continuously for 48 h (Table 5)) was 58.4 ± 6.1 nM. The IC50 (HCV luciferase replicon [10]; Huh-7, cells incubated with drug for 2 h, followed by 46 h without drug) was 170 ± 33 nM and the solubility [11] was > 500 µM.
